Results as given in ChEMBL document CHEMBL5518227, “Discovery of JNJ-1802, a First-in-Class Pan-Serotype Dengue Virus NS4B Inhibitor” (J Med Chem, 2024).

How the values were obtained:
[1] = tested on: dengue virus type 1; test: Antiviral activity against DENV-1 TC974#666 infected in african green monkey Vero cells incubated for 24 hrs measured after 3 days post infection by RT-PCR analysis; type: functional, organism-based; details: Dengue virus, TC974#666, Vero; read-out: EC50
[2] = tested on: dengue virus type 4; test: Antiviral activity against DENV-4 H241 infected in african green monkey Vero cells incubated for 24 hrs measured after 3 days post infection by RT-PCR analysis; type: functional, organism-based
[3] = Metabolic stability in human liver microsomes assessed as intrinsic clearance preincubated for 5 mins followed by NADPH addition measured upto 60 mins by LC-MS/MS analysis; type: ADME, Microsome; details: time < 65 min, read-out: CLH
[4] = Clearance in Sprague-Dawley rat at 2.5 mg/kg, iv measured after 24 hrs by LC-MS/MS analysis; type: ADME, organism-based; details: in vivo
[5] = Clearance in Sprague-Dawley rat assessed as liver blood flow at 2.5 mg/kg, iv measured after 24 hrs by LC-MS/MS analysis; type: ADME, organism-based; details: in vivo
[6] = Elimination half life in Sprague-Dawley rat at 2.5 mg/kg, iv measured after 24 hrs by LC-MS/MS analysis; type: ADME, organism-based; details: in vivo, read-out: beta t1/2 (converted)
[7] = Cmax in Sprague-Dawley rat at 10 mg/kg, po measured after 24 to 48 hrs by LC-MS/MS analysis; type: ADME, organism-based; details: in vivo, time 24-48 hrs
[8] = Metabolic stability in dog hepatocytes assessed as intrinsic clearance measured per million cells incubated upto 120 mins by LC-MS/MS analysis; type: ADME, cell-based, Canis lupus familiaris, Hepatocyte; details: read-out: CLH
[9] = Metabolic stability in cynomolgus monkey hepatocytes assessed as intrinsic clearance measured per million cells incubated upto 120 mins by LC-MS/MS analysis; type: ADME, cell-based, Macaca fascicularis, Hepatocyte; details: read-out: CLH
[10] = Clearance in CD-1 mouse at 2.5 mg/kg, iv measured upto 24 hrs by LC-MS/MS analysis; type: ADME, organism-based; details: in vivo
[11] = Elimination half life in CD-1 mouse at 2.5 mg/kg, iv measured upto 24 hrs by LC-MS/MS analysis; type: ADME, organism-based; details: in vivo, read-out: beta t1/2 (converted)
[12] = Oral bioavailability in CD-1 mouse at 10 mg/kg measured upto 24 hrs by LC-MS/MS analysis; type: ADME, organism-based; details: in vivo
[13] = Clearance in CD-1 mouse assessed as liver blood flow at 2.5 mg/kg, iv measured upto 24 hrs by LC-MS/MS analysis; type: ADME, organism-based; details: in vivo
[14] = Clearance in overnight fasted Beagle dog at 0.51 mg/kg, iv measured upto 24 hrs by LC-MS/MS analysis; type: ADME, organism-based, Canis lupus familiaris; details: in vivo
[15] = AUC in overnight fasted Beagle dog at 2.37 mg/kg, po measured upto 24 hrs by LC-MS/MS analysis; type: ADME, organism-based, Canis lupus familiaris; details: in vivo
[16] = Clearance in 8 hrs fasted cynomolgus monkey at 1 mg/kg, iv measured upto 24 hrs by LC-MS/MS analysis; type: ADME, organism-based, Macaca fascicularis; details: in vivo
[17] = Volume of distribution at steady state in 8 hrs fasted cynomolgus monkey […] at 1 mg/kg, iv measured upto 24 hrs by LC-MS/MS analysis; type: ADME, organism-based, Macaca fascicularis; details: in vivo, read-out: Vdss
[18] = Elimination half life in 8 hrs fasted cynomolgus monkey assessed as liver blood flow at 1 mg/kg, iv measured upto 24 hrs by LC-MS/MS analysis; type: ADME, organism-based, Macaca fascicularis; details: in vivo, read-out: beta t1/2 (converted)
[19] = AUC in 8 hrs fasted cynomolgus monkey assessed as liver blood flow at 3 mg/kg, po measured upto 24 hrs by LC-MS/MS analysis; type: ADME, organism-based, Macaca fascicularis; details: in vivo
[20] = Distribution coefficient between 1-Octanol and aqueous phosphate buffer, logD of the compound at pH 7.4 by shake flask method; type: physicochemical; details: 1-octanol/aqueous phosphate buffer
[21] = Plasma protein binding in human at 5 uM measured after 24 hrs by LC-MS/MS analysis; type: ADME, cell-free; details: read-out: PPB (converted)
[22] = target: Voltage-gated inwardly rectifying potassium channel KCNH2 (Homo sapiens, UniProt Q12809); test: Inhibition of human ERG stably expressed in CHO cells by automated Qpatch electrophysiological assay; type: toxicity, cell-based
Chain of Voltage-gated inwardly rectifying potassium channel KCNH2 (Q12809 whole entry): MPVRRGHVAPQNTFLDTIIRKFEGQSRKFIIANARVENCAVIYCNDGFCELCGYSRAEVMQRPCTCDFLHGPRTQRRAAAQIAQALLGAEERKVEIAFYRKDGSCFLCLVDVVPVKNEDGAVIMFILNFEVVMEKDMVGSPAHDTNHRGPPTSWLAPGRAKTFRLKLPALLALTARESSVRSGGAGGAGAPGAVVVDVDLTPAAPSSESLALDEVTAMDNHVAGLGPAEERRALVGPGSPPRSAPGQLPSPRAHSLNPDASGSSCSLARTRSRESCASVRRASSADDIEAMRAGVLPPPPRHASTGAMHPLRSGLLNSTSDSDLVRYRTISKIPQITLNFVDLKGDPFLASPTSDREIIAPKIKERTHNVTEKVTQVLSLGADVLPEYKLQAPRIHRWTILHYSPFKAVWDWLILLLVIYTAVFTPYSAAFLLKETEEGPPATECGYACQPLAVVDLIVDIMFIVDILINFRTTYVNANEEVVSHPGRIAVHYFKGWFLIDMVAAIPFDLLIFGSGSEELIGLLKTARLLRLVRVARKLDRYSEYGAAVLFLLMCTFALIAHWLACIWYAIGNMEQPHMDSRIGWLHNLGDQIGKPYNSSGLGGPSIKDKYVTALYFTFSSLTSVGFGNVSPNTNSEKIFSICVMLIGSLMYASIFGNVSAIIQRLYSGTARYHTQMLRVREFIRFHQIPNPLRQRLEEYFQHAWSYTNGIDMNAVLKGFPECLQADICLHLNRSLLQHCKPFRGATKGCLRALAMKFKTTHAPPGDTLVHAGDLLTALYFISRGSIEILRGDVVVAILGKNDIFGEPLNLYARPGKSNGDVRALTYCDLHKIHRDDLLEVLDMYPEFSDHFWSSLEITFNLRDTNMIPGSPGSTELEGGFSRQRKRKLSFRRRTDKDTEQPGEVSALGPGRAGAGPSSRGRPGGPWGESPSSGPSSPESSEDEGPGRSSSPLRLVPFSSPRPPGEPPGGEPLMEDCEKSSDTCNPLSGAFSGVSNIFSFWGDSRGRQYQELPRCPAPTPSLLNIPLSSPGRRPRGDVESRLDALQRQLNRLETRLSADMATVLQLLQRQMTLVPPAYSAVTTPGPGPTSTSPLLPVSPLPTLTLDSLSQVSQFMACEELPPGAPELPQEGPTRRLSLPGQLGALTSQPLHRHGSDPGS

[23] = Mutagenicity in Salmonella typhimurium TA98 in presence or absence of S9 fraction pretreated for 90 mins measured after 48 hrs in dark by AMES test; type: toxicity; details: salmonella enterica subsp. enterica serovar typhimurium, s9, 49.5 h; time 2970 min
[24] = Mutagenicity in Salmonella typhimurium TA7003 in presence or absence of S9 fraction pretreated for 90 mins measured after 48 hrs in dark by AMES test; type: toxicity; details: salmonella enterica subsp. enterica serovar typhimurium, s9, 49.5 h; time 2970 min
[25] = Mutagenicity in Salmonella typhimurium TA7006 in presence or absence of S9 fraction pretreated for 90 mins measured after 48 hrs in dark by AMES test; type: toxicity; details: salmonella enterica subsp. enterica serovar typhimurium, s9, 49.5 h; time 2970 min
[26] = Cytotoxicity against african green monkey Vero cells by ATPlite cell viability luminescence assay; type: toxicity, cell-based; details: chlorocebus sabaeus
[27] = target: T1, Cytochrome P450 2C8 (Homo sapiens, UniProt P10632); test: Inhibition of human CYP2C8 preincubated for 5 mins followed by NADPH addition measured after 5 to 30 mins by LC-MS analysis; type: ADME
T1 sequence (P10632 whole entry): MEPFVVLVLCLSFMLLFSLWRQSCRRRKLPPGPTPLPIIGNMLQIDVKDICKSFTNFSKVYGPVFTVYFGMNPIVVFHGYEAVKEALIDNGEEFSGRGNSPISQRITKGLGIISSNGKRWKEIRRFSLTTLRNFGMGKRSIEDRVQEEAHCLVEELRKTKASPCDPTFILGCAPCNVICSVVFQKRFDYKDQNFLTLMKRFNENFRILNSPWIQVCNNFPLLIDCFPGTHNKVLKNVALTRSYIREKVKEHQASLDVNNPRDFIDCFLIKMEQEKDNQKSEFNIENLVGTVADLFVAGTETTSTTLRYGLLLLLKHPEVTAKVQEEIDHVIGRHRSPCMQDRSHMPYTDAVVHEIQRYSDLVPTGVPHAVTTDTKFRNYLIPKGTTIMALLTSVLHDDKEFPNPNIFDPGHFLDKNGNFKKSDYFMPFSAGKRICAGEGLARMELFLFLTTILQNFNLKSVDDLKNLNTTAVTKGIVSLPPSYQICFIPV

[28] = target: Cytochrome P450 2C9 (Homo sapiens, UniProt P11712); test: Inhibition of human CYP2C9 preincubated for 5 mins followed by NADPH addition measured after 5 to 30 mins by LC-MS analysis; type: ADME
Chain of Cytochrome P450 2C9 (P11712 whole entry): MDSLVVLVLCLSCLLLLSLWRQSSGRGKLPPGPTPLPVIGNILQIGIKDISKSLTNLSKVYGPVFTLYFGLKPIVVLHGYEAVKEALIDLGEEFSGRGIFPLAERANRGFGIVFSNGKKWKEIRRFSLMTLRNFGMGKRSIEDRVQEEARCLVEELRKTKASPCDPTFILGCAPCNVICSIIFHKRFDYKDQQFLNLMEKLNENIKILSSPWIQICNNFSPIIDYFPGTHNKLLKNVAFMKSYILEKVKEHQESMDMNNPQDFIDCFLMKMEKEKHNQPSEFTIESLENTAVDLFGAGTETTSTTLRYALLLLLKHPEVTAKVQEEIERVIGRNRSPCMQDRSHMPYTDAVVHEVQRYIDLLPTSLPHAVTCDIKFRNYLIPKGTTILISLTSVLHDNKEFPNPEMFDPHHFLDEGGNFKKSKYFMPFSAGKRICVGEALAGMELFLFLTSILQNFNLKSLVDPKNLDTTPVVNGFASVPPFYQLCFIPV

[29] = target: Cytochrome P450 2C19 (Homo sapiens, UniProt P33261); test: Inhibition of human CYP2C19 preincubated for 5 mins followed by NADPH addition measured after 5 to 30 mins by LC-MS analysis; type: ADME
Chain of Cytochrome P450 2C19 (P33261 whole entry): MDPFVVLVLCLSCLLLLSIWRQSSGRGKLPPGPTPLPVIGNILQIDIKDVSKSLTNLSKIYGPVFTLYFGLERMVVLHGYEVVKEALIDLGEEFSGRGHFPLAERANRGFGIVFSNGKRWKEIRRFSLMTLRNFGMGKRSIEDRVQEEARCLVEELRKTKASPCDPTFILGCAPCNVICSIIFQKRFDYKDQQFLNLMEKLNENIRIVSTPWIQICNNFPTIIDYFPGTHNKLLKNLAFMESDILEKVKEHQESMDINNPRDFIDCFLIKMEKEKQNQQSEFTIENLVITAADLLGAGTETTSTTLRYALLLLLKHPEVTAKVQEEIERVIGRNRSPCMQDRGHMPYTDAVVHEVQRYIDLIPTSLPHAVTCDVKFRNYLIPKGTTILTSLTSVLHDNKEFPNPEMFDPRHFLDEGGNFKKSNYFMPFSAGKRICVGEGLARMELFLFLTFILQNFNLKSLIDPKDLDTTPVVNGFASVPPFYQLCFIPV

[30] = target: Cytochrome P450 2D6 (Homo sapiens, UniProt P10635); test: Inhibition of human CYP2D6 preincubated for 5 mins followed by NADPH addition measured after 5 to 30 mins by LC-MS analysis; type: ADME
Chain of Cytochrome P450 2D6 (P10635 whole entry): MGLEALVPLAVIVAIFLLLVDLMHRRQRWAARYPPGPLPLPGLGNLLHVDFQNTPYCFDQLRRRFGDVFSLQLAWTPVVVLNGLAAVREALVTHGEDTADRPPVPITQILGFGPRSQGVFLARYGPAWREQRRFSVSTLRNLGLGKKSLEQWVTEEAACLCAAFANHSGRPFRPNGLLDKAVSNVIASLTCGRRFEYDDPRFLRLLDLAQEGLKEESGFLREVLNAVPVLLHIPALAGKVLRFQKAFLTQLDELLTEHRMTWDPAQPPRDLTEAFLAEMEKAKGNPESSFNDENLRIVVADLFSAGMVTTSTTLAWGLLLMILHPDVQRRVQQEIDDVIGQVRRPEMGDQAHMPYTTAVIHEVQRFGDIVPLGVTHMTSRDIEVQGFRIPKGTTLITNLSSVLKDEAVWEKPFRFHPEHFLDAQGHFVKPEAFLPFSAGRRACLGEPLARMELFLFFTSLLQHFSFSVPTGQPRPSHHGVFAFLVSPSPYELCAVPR

[31] = target: Cytochrome P450 3A4 (Homo sapiens, UniProt P08684); test: Inhibition of human CYP3A4 preincubated for 5 mins followed by NADPH addition measured after 5 to 30 mins by LC-MS analysis; type: ADME; details: time 10-35 min
Chain of Cytochrome P450 3A4 (P08684 whole entry): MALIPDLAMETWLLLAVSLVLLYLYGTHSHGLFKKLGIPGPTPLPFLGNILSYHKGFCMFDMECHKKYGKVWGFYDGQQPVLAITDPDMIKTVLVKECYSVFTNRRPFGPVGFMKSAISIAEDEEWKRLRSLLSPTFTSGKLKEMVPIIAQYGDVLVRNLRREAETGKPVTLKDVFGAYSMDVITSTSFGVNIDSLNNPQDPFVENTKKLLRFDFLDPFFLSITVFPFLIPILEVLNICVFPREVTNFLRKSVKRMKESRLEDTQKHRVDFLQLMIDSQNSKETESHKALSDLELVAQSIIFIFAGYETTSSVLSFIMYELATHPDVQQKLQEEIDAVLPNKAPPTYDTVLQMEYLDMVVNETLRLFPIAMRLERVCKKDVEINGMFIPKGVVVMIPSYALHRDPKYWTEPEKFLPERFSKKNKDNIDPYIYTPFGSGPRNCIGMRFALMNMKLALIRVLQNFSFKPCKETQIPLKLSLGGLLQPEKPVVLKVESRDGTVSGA

[32] = target: Cytochrome P450 3A5 (Homo sapiens, UniProt P20815); test: Inhibition of human CYP3A5 preincubated for 5 mins followed by NADPH addition measured after 5 to 30 mins by LC-MS analysis; type: ADME; details: time 10-35 min
Chain of Cytochrome P450 3A5 (P20815 whole entry): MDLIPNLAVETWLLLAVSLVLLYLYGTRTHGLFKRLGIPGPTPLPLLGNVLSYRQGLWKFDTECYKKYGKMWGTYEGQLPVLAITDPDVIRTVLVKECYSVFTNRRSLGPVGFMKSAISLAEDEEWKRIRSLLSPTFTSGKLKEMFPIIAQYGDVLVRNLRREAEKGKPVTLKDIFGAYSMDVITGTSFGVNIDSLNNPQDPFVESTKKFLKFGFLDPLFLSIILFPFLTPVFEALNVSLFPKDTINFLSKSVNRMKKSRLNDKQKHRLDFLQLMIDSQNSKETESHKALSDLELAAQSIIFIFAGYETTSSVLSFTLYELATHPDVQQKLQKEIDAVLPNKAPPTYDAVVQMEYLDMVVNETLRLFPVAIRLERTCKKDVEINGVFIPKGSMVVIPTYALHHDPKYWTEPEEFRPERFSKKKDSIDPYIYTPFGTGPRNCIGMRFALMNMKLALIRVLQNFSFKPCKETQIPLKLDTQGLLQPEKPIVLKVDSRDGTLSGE

[33] = tested on: dengue virus type 2; test: In vivo antiviral activity against DENV-2/RL infected in AG129 mouse assessed as increase in efficacy administered as po bid for 3 days; type: functional, organism-based; details: dose 0.2-60 mg/kg/day, time 3.0 day

Compound `COc1cc(N[C@H](C(=O)c2c[nH]c3ccc(OC(F)(F)F)cc23)c2ccc(Cl)cc2OC)cc(S(C)(=O)=O)c1` [MOSNODENVIR] has an EC50 [1] of 0.2 nM, an EC50 [2] of 11 nM and a microsomal CLint [3] of under 8 µL/min/mg. For the same compound, the clearance [4] was 4.9 mL/min/kg, the LBF [5] was 7% and the half-life [6] was 744 min. The Cmax [7] was 629 ng/mL, the hepatocyte CLint [8] was 5.7 µL/min/1e6 cells and the hepatocyte CLint [9] was under 1.9 µL/min/1e6 cells. For the same compound, the clearance [10] was 4.97 mL/min/kg, the half-life [11] was 372 min and the bioavailability [12] was 108%. It also gave an LBF [13] of 4%, a clearance [14] of 6.4 mL/min/kg and an AUC at 24 h [15] of 2940 ng·h/mL. It also gave a clearance [16] of 2.45 mL/min/kg, a Vd [17] of 1.64 L/kg and a half-life [18] of 574 min. For the same compound, the AUC at 24 h [19] was 8970 ng·h/mL, the logD [20] was over 4.1 and the fraction unbound at 24 h, 5 µM [21] was 0.0014. For the same compound, the IC50 [22] was over 30 µM, the Activity [23] was “Non-Toxic” and the Activity [24] was “Non-Toxic”. The Activity [25] was “Non-Toxic”, the CC50 [26] was 2600 nM and the IC50 [27] was 7.4 µM. For the same compound, the IC50 [28] was 3.7 µM, the IC50 [29] was 10.3 µM and the IC50 [30] was over 30 µM. The “inhibition (INH)” value [31] was “Not Active”, the “inhibition (INH)” value [32] was “Not Active” and the Activity [33] was “Dose-Dependent Effect”.
